Measured values from patent publication US6933287B1, “Dramatic simplification of a method to treat neoplastic disease by radiation” (priority 1999, dated 2005).

How the values were obtained:
thymidylate synthetase [1] = target: T1, thymidylate synthetase (Lacticaseibacillus casei, UniProt P00469); details: read-out: Ki for the inhibition of thymidylate synthetase; cited from earlier work
thymidylate synthetase [2] = target: T1, thymidylate synthetase; details: cited from earlier work
[3] = test system: radiation induced fibrosarcoma, RIF-1; details: toxic doses of CldC; cited from earlier work
[4] = Half life of CldC with H4U in mice; format: in vivo; details: effect of H4U
Excerpt: (§1) Furthermore, CldC plus H4U was not toxic to dogs or monkeys. In monkeys and mice, H4U increased the half life of CldC. This is a very important indicator of the efficacy of CldC plus H4U in the treatment of diseases, in particular tumors in humans.

[5] = Half life of CldC with H4U in monkeys; format: in vivo; details: effect of H4U
Excerpt: as §1

T1 sequence (P00469 whole entry): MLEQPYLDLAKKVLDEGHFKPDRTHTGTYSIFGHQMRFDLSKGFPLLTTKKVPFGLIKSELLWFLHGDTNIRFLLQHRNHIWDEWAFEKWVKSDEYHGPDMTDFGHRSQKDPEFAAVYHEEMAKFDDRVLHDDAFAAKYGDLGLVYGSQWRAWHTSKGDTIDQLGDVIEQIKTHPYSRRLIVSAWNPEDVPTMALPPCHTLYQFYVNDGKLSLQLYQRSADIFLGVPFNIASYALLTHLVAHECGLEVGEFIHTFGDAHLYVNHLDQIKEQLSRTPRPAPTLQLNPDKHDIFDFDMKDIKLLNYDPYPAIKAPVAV

## O=c1[nH]c(=O)n([C@H]2C[C@H](O)[C@@H](COP(=O)(O)O)O2)cc1I [IdUMP]
Thymidylate synthetase [1]
  Ki: 1.6 µM

## O=c1[nH]c(=O)n([C@H]2C[C@H](O)[C@@H](COP(=O)(O)O)O2)cc1Cl [CldUMP]
Thymidylate synthetase [2]
  dehalogenation by thymidylate synthetase: not dehalogenated
Thymidylate synthetase [1]
  Ki: 0.19 µM

## Nc1nc(=O)n([C@H]2C[C@H](O)[C@@H](CO)O2)cc1Cl [CldC, 5-chloro-2′-deoxycytidine]
[3]
  dose enhancement ratio: 1.6

## O=c1[nH]c(=O)n([C@H]2C[C@H](O)[C@@H](COP(=O)(O)O)O2)cc1F [FdUMP]
Thymidylate synthetase [1]
  Ki: 0.015 µM

## O=C1NC(O)CCN1[C@@H]1O[C@H](CO)[C@@H](O)[C@H]1O (some centres unmarked) [H4U, tetrahydrouridine]
[4]
  half life of CldC: increased
[5]
  half life of CldC: increased

## O=c1[nH]c(=O)n([C@H]2C[C@H](O)[C@@H](COP(=O)(O)O)O2)cc1Br [BrdUMP]
Thymidylate synthetase [1]
  Ki: 1.4 µM
